The values that follow come from US8383162B2 (priority 2006, dated 2013).

Data set [1] deals with rats. Conditions: rat, in vivo.
In data set [2] the test system is rats. As to conditions: rat, in vivo. This is another data set of the same source.
Data set [3] relates to central nervous system cells. Kind of data set: Acute toxicity and electrical excitability in central nervous system cells.
The nature of data set [4]: Acute, chronic and neurogenic pain after intrathecal bolus pretreatment. It is filed as in vivo. As to conditions: pretreatment by intrathecal bolus injection. How it is done: In the heat pain model the antinociceptive effect of the Phα1B lasts 24 h.
Data set [5] relates to HVA calcium channels subtypes (L, N, P/Q and R). It is filed as cell-based, mammalian.
Data set [6] has as its target T1, N-type calcium channels (Homo sapiens, UniProt Q00975).
T1 construct: expressed in transfected cells; host or cells: HEK cells
It is filed as cell-based, mammalian.

Data set [7] concerns synaptosomes. It is filed as cell-based.
Data set [8] relates to rats. As to conditions: rat, in vivo. The source holds these as a separate data set.
The subject of data set [9] is rats. Conditions: rat, in vivo. The source holds these as a separate data set.
Data set [10] deals with synaptosomes. It is filed as cell-based. The source holds these as a separate data set.
Data set [11] relates to nerve ending spinal cord of rats. It is filed as cell-based.
In data set [12] the test system is N-type calcium channels on neuronal pre-synaptic membrane. It is filed as cell-based.

In general, IC50 refers to the concentration needed to halve the response being measured.

“Also recorded” adds a separate entry of the source.

T1 sequence (Q02641 whole entry): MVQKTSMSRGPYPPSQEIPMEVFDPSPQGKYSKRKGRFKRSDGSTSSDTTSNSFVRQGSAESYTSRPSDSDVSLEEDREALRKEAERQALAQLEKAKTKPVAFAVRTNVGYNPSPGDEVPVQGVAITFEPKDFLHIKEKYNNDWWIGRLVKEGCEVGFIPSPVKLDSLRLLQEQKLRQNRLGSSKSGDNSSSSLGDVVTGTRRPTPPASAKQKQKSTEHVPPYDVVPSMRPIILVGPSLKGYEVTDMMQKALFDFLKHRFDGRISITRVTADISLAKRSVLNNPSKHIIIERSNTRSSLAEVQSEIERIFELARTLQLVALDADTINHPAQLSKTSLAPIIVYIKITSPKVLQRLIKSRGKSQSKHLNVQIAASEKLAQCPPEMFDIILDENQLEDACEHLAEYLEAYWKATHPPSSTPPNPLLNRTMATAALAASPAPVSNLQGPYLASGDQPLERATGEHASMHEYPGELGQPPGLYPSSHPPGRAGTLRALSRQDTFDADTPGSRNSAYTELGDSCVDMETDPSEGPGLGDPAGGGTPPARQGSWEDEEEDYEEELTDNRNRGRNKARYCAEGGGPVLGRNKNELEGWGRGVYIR
T1 sequence (P54289 957-1103, further chain): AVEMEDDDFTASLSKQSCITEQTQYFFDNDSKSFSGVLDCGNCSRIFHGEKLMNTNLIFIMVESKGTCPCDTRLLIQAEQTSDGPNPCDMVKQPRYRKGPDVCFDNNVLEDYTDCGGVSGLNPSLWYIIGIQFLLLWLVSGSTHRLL
T1 sequence (P54289 25-956, further chain): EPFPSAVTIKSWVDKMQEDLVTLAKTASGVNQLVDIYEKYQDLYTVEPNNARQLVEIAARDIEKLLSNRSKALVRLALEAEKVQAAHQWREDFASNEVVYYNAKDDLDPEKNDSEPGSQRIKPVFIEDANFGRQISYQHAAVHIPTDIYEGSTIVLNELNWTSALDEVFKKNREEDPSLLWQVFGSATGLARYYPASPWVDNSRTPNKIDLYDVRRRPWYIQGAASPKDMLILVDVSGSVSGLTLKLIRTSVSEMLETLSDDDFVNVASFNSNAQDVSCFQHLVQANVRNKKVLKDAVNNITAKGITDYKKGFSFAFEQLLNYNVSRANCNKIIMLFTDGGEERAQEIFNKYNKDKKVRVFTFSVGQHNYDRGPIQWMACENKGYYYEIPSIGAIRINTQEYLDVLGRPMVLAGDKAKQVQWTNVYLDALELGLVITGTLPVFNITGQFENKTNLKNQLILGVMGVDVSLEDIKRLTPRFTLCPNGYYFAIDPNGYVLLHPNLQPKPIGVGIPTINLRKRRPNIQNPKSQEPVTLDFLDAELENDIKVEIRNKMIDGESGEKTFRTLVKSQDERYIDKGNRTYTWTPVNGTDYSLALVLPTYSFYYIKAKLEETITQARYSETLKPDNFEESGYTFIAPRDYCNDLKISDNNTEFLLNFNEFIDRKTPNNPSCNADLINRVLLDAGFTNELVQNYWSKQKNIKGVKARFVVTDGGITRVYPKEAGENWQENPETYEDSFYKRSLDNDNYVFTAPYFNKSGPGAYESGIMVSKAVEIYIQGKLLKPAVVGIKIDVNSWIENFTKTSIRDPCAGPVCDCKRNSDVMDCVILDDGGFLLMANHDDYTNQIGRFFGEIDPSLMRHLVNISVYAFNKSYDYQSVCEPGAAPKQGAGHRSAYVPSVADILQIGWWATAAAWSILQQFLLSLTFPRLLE
T1 sequence (Q00975 whole entry): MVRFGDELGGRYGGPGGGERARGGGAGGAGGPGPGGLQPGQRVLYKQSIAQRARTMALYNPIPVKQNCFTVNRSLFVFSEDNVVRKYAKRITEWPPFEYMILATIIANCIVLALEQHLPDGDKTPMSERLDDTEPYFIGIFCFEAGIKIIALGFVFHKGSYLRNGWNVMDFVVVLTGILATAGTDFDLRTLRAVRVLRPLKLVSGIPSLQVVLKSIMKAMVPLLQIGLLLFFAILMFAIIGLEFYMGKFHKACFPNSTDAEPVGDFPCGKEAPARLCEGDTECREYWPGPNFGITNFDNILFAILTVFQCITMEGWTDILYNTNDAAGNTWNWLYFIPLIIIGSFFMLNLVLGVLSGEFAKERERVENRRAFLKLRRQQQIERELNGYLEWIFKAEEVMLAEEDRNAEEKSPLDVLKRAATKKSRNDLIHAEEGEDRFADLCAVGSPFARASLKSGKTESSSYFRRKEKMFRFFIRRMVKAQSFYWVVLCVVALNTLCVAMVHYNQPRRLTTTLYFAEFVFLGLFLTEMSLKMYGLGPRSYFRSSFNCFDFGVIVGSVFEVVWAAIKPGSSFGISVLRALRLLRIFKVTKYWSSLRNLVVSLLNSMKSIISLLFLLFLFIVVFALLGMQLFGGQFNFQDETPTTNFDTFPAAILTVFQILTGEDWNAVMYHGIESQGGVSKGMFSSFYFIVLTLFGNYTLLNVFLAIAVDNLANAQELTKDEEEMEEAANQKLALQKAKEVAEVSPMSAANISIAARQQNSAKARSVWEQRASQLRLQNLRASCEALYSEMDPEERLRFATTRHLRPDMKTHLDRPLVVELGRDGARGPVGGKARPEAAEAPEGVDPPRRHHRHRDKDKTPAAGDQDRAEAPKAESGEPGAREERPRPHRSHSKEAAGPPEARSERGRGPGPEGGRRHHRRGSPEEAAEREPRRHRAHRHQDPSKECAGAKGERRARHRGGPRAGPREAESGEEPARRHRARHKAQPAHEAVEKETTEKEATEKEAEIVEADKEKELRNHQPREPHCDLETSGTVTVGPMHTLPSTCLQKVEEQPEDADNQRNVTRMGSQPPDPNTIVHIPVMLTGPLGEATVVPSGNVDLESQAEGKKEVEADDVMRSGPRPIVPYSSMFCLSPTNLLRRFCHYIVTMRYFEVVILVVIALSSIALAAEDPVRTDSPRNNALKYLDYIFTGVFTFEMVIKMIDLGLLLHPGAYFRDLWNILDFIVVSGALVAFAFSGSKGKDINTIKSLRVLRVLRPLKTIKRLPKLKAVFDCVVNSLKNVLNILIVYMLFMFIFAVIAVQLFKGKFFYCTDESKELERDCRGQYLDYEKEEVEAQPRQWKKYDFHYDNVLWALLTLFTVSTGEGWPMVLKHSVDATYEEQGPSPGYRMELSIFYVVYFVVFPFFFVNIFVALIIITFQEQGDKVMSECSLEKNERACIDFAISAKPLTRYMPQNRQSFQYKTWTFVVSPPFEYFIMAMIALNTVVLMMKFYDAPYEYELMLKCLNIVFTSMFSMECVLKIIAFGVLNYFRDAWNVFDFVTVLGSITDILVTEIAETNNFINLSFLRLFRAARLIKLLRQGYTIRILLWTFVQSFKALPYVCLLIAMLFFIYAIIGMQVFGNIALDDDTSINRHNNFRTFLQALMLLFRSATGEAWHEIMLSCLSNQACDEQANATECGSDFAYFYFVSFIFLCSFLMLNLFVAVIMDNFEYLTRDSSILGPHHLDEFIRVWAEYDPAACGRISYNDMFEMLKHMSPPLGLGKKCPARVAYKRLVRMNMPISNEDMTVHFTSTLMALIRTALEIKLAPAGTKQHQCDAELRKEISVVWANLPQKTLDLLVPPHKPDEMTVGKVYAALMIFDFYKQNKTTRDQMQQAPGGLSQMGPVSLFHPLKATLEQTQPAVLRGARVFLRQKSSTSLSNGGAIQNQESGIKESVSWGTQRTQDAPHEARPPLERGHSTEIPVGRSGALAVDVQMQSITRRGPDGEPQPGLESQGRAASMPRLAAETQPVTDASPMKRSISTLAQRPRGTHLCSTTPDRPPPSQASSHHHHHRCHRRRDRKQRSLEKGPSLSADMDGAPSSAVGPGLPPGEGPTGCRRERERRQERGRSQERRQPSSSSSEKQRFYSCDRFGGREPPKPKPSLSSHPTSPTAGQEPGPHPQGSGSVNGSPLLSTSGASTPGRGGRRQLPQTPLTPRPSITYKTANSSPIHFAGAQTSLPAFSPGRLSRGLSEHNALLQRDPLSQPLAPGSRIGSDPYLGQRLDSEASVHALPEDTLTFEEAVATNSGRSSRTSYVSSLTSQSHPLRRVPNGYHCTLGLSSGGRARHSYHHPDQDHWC

Regarding `CN1CC[C@]23c4c5ccc(O)c4O[C@H]2[C@@H](O)C=C[C@H]3[C@H]1C5` [morphine, reference compound], in data set [1], the “duration of significant effect on hot plate” value was “up to 5 hours”.
As to “Phα1B (ACIPRGEICTDDCECCGCDNQCYCPPGSSLGIFKCSCAHANKYFCNRKKEKCKA)”, in [2], the “ED50 for inhibiting the inflammatory phase of formalin test, comparison” value was “lower ED50 values”; the “antinociceptive effect on the inflammatory phase of formalin test” value was “potent and longer antinociceptive effect”. In data set [3], the “effect on electrical excitability of the neurons” value was “does not affect”. In addition, the “acute toxicity to the cells tested” value in data set [3] (central nervous system cells) is reported as “not acutely toxic”. Besides, the “effect on acute, chronic and neurogenic pain” value in data set [4] is “blocks the acute, cronic and neurogenic pain”. For the same compound, in data set [5], the “block of HVA calcium channel subtypes (L, N, P/Q and R)” value was “reversible block of all four HVA calcium channels subtypes”; the “selectivity among HVA Ca2+ channels” value was “most potent and effective on N-type; also recorded: measurable preference for N-type channels”. Besides, the “reversibility of N-type calcium channel inhibition” value in data set [6] is given as “reversibly inhibited”. In data set [6] (read-out: IC50 for inhibition of N-type calcium channels), the IC50 was determined as 122 nM. In addition, the “effect on uptake of 45Ca2+ (calcium influx on depolarized terminal)” value in [7] is listed as “blocks”. In data set [8], the “factor by which antinociceptive doses are lower than doses associated with side-effects (DT50)” value is on record as “around 15 times”. In [9], the “IC50 for the antinociceptive effect” value is reported as 50.2 pmol; the “antinociceptive effect (pain inhibition), in words” value is “reduces the pain in rats; also recorded: more effective to inhibit pain; also recorded: higher than that induced by morphine”; the “dose at which maximal inhibition was obtained” value is reported as 87.2 pmol; the “duration of the antinociceptive effect” value is “up to 24 hours”. Besides, in data set [1], the “duration of antinociceptive effect in the heat pain model” value is 24 h; the “efficacy against pain induced on the hot plate test” value is reported as “higher efficacy than conotoxins”; the “latency period on hot plate, time points with significant increase” value was “increasing significantly the latency period to 3, 4, 5, 6 and 24 hours”. The “effect on stimulated release of glutamate” value in [10] is given as “blocks; also recorded: blocked the release of glutamate”. For the same compound, the “efficacy to inhibit capsaicin-induced release of glutamate” value in data set [11] is “higher efficacy”. In addition, the “effect on capsaicin-induced increase of [Ca2+]i” value in [12] is recorded as “inhibition”.
